The record followed here is patent US6342335B1, “Polymethine compounds, method of producing same, and use thereof” (Yamamoto Chemicals, Inc., priority 1999, dated 2002).

Data set [1] can be described thus: Maximum absorption wavelength (λmax) in diacetone alcohol. Type of data set: physicochemical. How it is done: The maximum absorption wavelength (λmax) of the polymethine compound of the present invention in diacetone alcohol as well as those of known Compound A and Compound B were measured.
Data set [2] is described as follows: Solubility test in methyl ethyl ketone. To be noted: 25° C. overnight, visual inspection for insoluble matter. Type of data set: physicochemical. How it is done: The solubility of the polymethine compound of the invention in methyl ethyl ketone as well as the solubilities of said known Compound A and Compound B were measured. Solubility measurements were carried out by the following method.
A 5 ml screw tube was charged with 200 mg of each polymethine compound and 1 ml of methyl ethyl ketone and agitated for dissolution with Mix-Rotor at 25° C. overnight. Each sample was visually inspected for insoluble matter. When no insoluble residue was found, the solubility was rated ≧20%. When an insoluble residue was found, the solubility was rated less than 20%.

On to `COCCN1/C(=C\C=C2/CCCC(/C=C/C3=[N+](CCOC)c4c(C)cc(OC)cc4C3(C)C)=C2Cl)C(C)(C)c2cc(OC)cc(C)c21` [Compound (55), 2-(2-{2-chloro-3-[(1,3-dihydro-3,3,7-trimethyl-5-methoxy-1-methoxyethyl-2H-indol-2-ylidene)ethylidene]-1-cyclohexen-1-yl}ethenyl)-3,3,7-trimethyl-5-methoxy-1-methoxyethylindolium=tetrafluoroborate], for which the λmax in data set [1] is 822 nm. Also, the “Solubility (g/ml)” value in data set [2] is given as “≧20%”.
Compound `COCCN1/C(=C\C=C2/CCCC(/C=C/C3=[N+](CCOC)c4ccccc4C3(C)C)=C2Cl)C(C)(C)c2ccccc21` [Compound A, reference compound] came in with a λmax in data set [1] of 788 nm.
